Experimental data taken from PubChem BioAssay (NCI).
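These data come from cells grown in 96-well plates and exposed to compound for 48 hours at five concentrations. GI50 is the concentration that inhibits growth by half. TGI marks complete inhibition of growth.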

How the values were obtained:
Assay in all cases: inhibition of tumour cell growth, NCI panel, 48 h
[1] = system: MDA-MB-435
[2] = system: NCI-H522 lung
[3] = system: HCT-116 colon
[4] = system: RPMI-8226 leukemia
[5] = system: OVCAR-8 ovarian
[6] = system: K-562 leukemia
[7] = system: UACC-62 melanoma
[8] = system: NCI-H460 lung
[9] = system: OVCAR-3 ovarian
[10] = system: T-47D breast

Structure (SMILES)	TGI [1] [µM]	TGI [2] [µM]	TGI [3] [µM]	TGI [4] [µM]	TGI [5] [µM]	TGI [6] [µM]	TGI [7] [µM]	TGI [8] [µM]	TGI [9] [µM]	TGI [10] [µM]	GI50 [9] [nM]	GI50 [2] [nM]	GI50 [3] [nM]	GI50 [4] [nM]	GI50 [5] [nM]	GI50 [10] [nM]	GI50 [6] [nM]	GI50 [8] [nM]
N#Cc1c(-c2ccc([N+](=O)[O-])cc2)c(C#N)c(=O)n(NS(=O)(=O)c2ccccc2)c1S	81.9	42.4	39.8	44.6	> 100	77.4	60.3	> 100	–	–	–	–	–	–	–	–	–	–
C=CCC(O[Si](C)(C)C(C)(C)C)c1cc(O[Si](C)(C)C(C)(C)C)ccc1OC (configuration not stated)	–	–	> 100	> 100	> 100	> 100	> 100	> 100	> 100	–	–	–	–	–	–	–	–	–
O=[N+]([O-])c1ccc(-n2nc3ccc4nonc4c3n2)cc1	> 100	> 100	> 100	> 100	–	> 100	> 100	> 100	> 100	> 100	–	–	–	–	–	–	–	–
Cc1nnc2n1N=C(c1ccccc1)C(c1ccccc1)S2 (configuration not stated)	–	57.7	> 100	> 100	> 100	> 100	> 100	> 100	> 100	–	–	–	–	–	–	–	–	–
NC(=O)CCC(N=c1c2ccccc2n(O)c2ccccc12)C(=O)O (configuration not stated)	–	> 100	> 100	97.3	> 100	> 100	> 100	> 100	> 100	–	–	–	–	–	–	–	–	–
COC(=O)c1c2c(cc3c1CC1(Cc4cc5c(c(C=O)c4C1)CCC5)C3)CCC2 (configuration not stated)	50.5	56.6	60	> 100	> 100	> 100	–	> 100	99.2	> 100	–	–	–	–	–	–	–	–
COP(=O)(OC)OCN(C)CC/C=C(\C)CC/C=C(\C)CCC=C(C)C	40.2	26.1	25.9	28.3	29.5	20.6	–	23.9	29.9	43.9	–	–	–	–	–	–	–	–
O=C1c2ccccc2-c2nc3ccncc3n21	–	> 100	> 100	> 100	> 100	> 100	> 100	> 100	> 100	–	–	–	–	–	–	–	–	–
CC1OC(OC2C(O[C@H]3CC[C@@]4(C)C(=CC[C@H]5[C@@H]6C[C@@H]7O[C@]8(CC[C@@H](C)CO8)[C@@H](C)[C@@H]7[C@@]6(C)CC[C@@H]54)C3)OC(CO)C(O)C2OC2OC(CO)C(O)C(O)C2O)C(O)C(O)C1O (some centres not stated)	3.73	3.42	–	–	> 100	> 100	–	–	2.69	4.65	–	–	–	–	–	–	–	–
COc1cc2c(/C=C3/C(=O)Nc4ccccc43)c(Cl)n(Cc3ccc(Cl)cc3)c2cc1C	0.428	2.06	0.824	0.925	0.989	–	2.5	2.3	0.432	24.2	–	–	–	–	–	–	–	–
C=C(Br)CN=CN(C)C	> 100	> 100	> 100	> 100	> 100	> 100	> 100	–	> 100	> 100	–	–	–	–	–	–	–	–
CCOC(=O)c1cc(-c2ccc(OC)cc2)c([N+](=O)[O-])[nH]1	> 10	> 10	> 10	–	> 10	> 10	> 10	> 10	> 10	> 10	–	–	–	–	–	–	–	–
CCOC(=O)c1c(N)sc2c1C(C(=O)OCC)CCCC2 (configuration not stated)	–	–	> 100	> 100	> 100	> 100	> 100	> 100	–	78.3	–	–	–	–	–	–	–	–
O=C1Nc2ccccc2/C1=C\c1c(Cl)n(-c2ccccc2)c2ccccc12	–	–	6.26	> 100	40.8	> 100	66.7	21.7	4.86	56.7	–	–	–	–	–	–	–	–
CC1=NN(C(=O)CC(=O)Nc2cccc(C)c2)C(=O)C1N=Nc1ccc(S(=O)(=O)CCOS(=O)(=O)O)cc1 (configuration not stated)	–	0.835	12.6	> 100	> 22.4	> 100	9.34	11.8	14.9	> 49.5	–	–	–	–	–	–	–	–
O=C1c2cc3c(cc2-c2c1c1cc(F)c(F)cc1c(=O)n2CCCn1ccnc1)OCO3	–	0.432	10.8	0.673	> 100	> 100	–	0.199	1.52	0.0577	116	12.4	< 10	25.3	22	< 10	44.1	< 10
CC1=C(CO)C(=O)OC(C(C)C2CCC3C4CC5OC56C(O)C(N5CC5)=CC(=O)C6(C)C4CCC23C)C1 (configuration not stated)	–	3.36	12.2	17.8	5.78	14.2	23.8	25	11.7	–	–	–	–	–	–	–	–	–
COc1ccc(-c2ccc(C(=O)C=P(c3ccccc3)(c3ccccc3)c3ccccc3)cc2)cc1	30	–	32.3	5.01	–	20.6	28.9	20.5	20.1	62.3	–	–	–	–	–	–	–	–
N#Cc1ccccc1NC(=O)C(=O)C(C(=O)c1ccccc1F)C1OC(=O)c2ccccc21 (configuration not stated)	–	75.1	> 100	76.7	> 100	> 100	> 100	> 100	–	–	–	–	–	–	–	–	–	–
CCCCCC[C@H]([C@H](C)O)n1cnc2c(N)ncnc21	> 100	–	> 100	> 100	> 100	> 100	> 100	> 100	> 100	> 100	–	–	–	–	–	–	–	–
O=c1c2cc(Br)cc(Br)c2[nH]c(=S)n1-c1ccc(N=Nc2ccc(O)c3cccnc23)cc1	> 100	60.8	> 100	> 100	> 100	> 100	–	–	28.5	> 100	–	–	–	–	–	–	–	–
C/C(=N\Nc1nc2ccccc2s1)c1ccncn1	> 100	2.05	16.3	> 26	1.03	–	> 26.5	14.9	–	> 100	–	–	–	–	–	–	–	–
